Values joined by “and” are separate entries in the source; they are usually repeats but may differ in a detail not shown here. Equal entries are not always repeated.
What was measured:
[1] = target: Glycogen synthase kinase-3 beta (Homo sapiens, UniProt P49841); assay: TR-FRET Assay
Method in brief: (§1)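 Enzyme and test compound were first incubated together for 30 minutes in assay buffer. The kinase reaction followed and was stopped with EDTA. The pSer641 signal was read by time-resolved FRET.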

[2] = target: Glycogen synthase kinase-3 alpha (Homo sapiens, UniProt P49840); assay: TR-FRET Assay
Method in brief: as §1

Sequence of Glycogen synthase kinase-3 beta (P49841 whole entry): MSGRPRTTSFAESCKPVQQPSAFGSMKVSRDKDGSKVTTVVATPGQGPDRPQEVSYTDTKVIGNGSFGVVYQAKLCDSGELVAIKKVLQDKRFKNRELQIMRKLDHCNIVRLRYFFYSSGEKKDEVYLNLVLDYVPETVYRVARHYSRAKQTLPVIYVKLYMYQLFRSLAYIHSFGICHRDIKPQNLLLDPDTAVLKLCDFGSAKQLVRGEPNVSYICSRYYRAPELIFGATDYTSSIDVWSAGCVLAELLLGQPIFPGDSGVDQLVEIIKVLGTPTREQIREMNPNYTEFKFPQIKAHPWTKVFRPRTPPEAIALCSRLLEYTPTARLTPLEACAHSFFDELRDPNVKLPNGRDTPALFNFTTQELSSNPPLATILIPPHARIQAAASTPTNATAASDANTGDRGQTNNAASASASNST
Sequence of Glycogen synthase kinase-3 alpha (P49840 whole entry): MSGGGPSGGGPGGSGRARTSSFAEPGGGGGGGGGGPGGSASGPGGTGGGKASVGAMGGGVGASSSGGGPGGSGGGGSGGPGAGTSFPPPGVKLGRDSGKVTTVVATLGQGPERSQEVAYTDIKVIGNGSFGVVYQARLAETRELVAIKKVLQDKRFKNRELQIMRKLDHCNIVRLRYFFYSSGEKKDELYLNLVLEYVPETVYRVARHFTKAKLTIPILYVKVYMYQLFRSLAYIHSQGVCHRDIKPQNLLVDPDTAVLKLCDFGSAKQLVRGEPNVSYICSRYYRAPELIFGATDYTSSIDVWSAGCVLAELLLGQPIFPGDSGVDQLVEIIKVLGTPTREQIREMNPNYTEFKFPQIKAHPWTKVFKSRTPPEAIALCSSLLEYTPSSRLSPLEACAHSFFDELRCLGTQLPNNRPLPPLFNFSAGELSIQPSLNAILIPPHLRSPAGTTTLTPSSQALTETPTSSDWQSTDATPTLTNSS

Compound | IC50 [1] | IC50 [2]
CCC1(c2cccc(-c3cnn4c3CCCC4)c2)C2=C(CC(C)(C)CC2=O)NC2N=NC(C)=C21 (configuration not stated) [US20250313563, Compound 884002] | < 100 nM | < 100 nM
C[C@@H]1C[C@@]2(CCN1S(C)(=O)=O)C1=C(N=NC1)NC1=C2C(=O)CC(C)(C)C1 [US20250313563, Compound 918315] | 100 to 1000 nM | 100 to 1000 nM
Cc1cc([C@H]2CC[C@]3(CC2)C2=C(N=NC2)NC2=C3C(=O)CC(C)(C)C2)ccn1 [US20250313563, Compound 948415] | < 100 nM | < 100 nM
CCC1(c2cccc(C(F)(F)F)c2)C2=C(N=NC2)NC2=C1C(=O)CC2 (configuration not stated) [US20250313563, Compound 949639] | 100 to 1000 nM | 100 to 1000 nM
CCC1(c2cccc(N(C)c3ccc(C)nc3)c2)C2=CN=NC2NC2=C1C(=O)CC(C)(C)C2 (configuration not stated) [US20250313563, Compound 918272] | 100 to 1000 nM | 100 to 1000 nM
CC[C@@]1(c2cccc(-c3ccncc3C)c2)C2=CN=NC2NC2=C1C(=O)NC1(CCOCC1)C2 (some centres not stated) [US20250313563, Compound 948359] | < 100 nM and 1000 to 5000 nM | < 100 nM and 100 to 1000 nM
CC[C@@]1(c2cccc(-c3ccnc4c3CCC4)c2)C2=CN=NC2NC2=C1C(=O)CC(C)(C)C2 (some centres not stated) [US20250313563, Compound 945606] | 100 to 1000 nM and 1000 to 5000 nM | 100 to 1000 nM
CC[C@@]1(c2cccc(-c3cc(C)ncc3C)c2)C2=C(CC(C)(C)CC2=O)NC2N=NC(C)=C21 (some centres not stated) [US20250313563, Compound 913019] | 1000 to 5000 nM | 100 to 1000 nM
CC[C@@]1(c2cccc(-c3cnn(C)c3C(F)(F)F)c2)C2=CN=NC2NC2=C1C(=O)NC(C)(C)C2 (some centres not stated) [US20250313563, Compound 948815] | 100 to 1000 nM and > 5000 nM | < 100 nM and 100 to 1000 nM
CC(C)(C)CC1N=NC2=C1C1(CN(S(=O)(=O)CC3CC3)C1)C1=C(CC3(CCC3)CC1=O)N2 (configuration not stated) [US20250313563, Compound 107829] | 100 to 1000 nM | 1000 to 5000 nM
CC[C@]1(c2cccc(Br)c2)C2=C(C[C@@H](C)CC2=O)NC2N=NC(C(F)(F)F)=C21 (some centres not stated) [US20250313563, Compound 828847] | < 100 nM | < 100 nM
COc1ncccc1S(=O)(=O)N1CCC2(CC1)C1=C(N=NC1)NC1=C2C(=O)CC(C)(C)C1 [US20250313563, Compound 947260] | < 100 nM and 100 to 1000 nM | < 100 nM
CC1(C)CC(=O)C2=C(C1)NC1=C(CN=N1)C21CCN(S(=O)(=O)c2cccc(Cl)c2)CC1 [US20250313563, Compound 947243] | < 100 nM and 1000 to 5000 nM | < 100 nM and 100 to 1000 nM
CCC1(c2cccc(C(F)(F)C(F)(F)F)c2)C2=CN=NC2NC2=C1C(=O)CC(C)(C)C2 (configuration not stated) [US20250313563, Compound 948615] | < 100 nM | < 100 nM
CC[C@]1(c2cccc(N3C[C@@H](C)[C@H](C)C3)c2)C2=CN=NC2NC2=C1C(=O)CC(C)(C)C2 (some centres not stated) [US20250313563, Compound 924504] | 100 to 1000 nM | 100 to 1000 nM
CC[C@]1(c2cccc(C(F)(F)F)c2)C2=CN=NC2NC2=C1C(=O)N(c1cnsc1)CC2 (some centres not stated) [US20250313563, Compound 951733] | 100 to 1000 nM | < 100 nM
CC1(C)CC(=O)C2=C(C1)NC1=C(CN=N1)[C@]21CC[C@H](C(F)(F)F)C1 [US20250313563, Compound 952435] | 100 to 1000 nM | < 100 nM
CC1(C)CC(=O)C2=C(C1)NC1=C(CN=N1)[C@@]21CC[C@H](C(F)(F)F)C1 [US20250313563, Compound 952434] | 100 to 1000 nM | 100 to 1000 nM
CCC1(c2cccc(N(C)C(=O)CN3CCCC3)c2)C2=CN=NC2NC2=C1C(=O)CC(C)(C)C2 (configuration not stated) [US20250313563, Compound 909202] | 1000 to 5000 nM | 100 to 1000 nM
CC[C@@]1(c2cccc(-c3cn(C)nc3C3CC3)c2)C2=CN=NC2NC2=C1C(=O)NC(C)(C)C2 (some centres not stated) [US20250313563, Compound 951706] | < 100 nM | < 100 nM
CC[C@@]1(c2cccc(C(F)(F)F)c2)C2=CN=NC2NC2=C1C(=O)CC1(CCCC1)C2 (some centres not stated) [US20250313563, Compound 801310] | > 1670 nM | 100 to 1000 nM
CCC1(c2cccc(N(C)c3ccncc3)c2)C2=CN=NC2NC2=C1C(=O)CC(C)(C)C2 (configuration not stated) [US20250313563, Compound 853910] | 1000 to 5000 nM | 100 to 1000 nM
CCC1(c2cccc(C(F)(F)F)c2)C2=CN=NC2NC2=C1C(=O)N(Cc1ccccc1)CC2 (configuration not stated) [US20250313563, Compound 897749] | > 5000 nM | 100 to 1000 nM

Compound | IC50 [1] | IC50 [2]
CC[C@@]1(c2cccc(C(F)(F)F)c2)C2=CN=NC2NC2=C1C(=O)N(c1cn(C)nc1C)CC2 (some centres not stated) [US20250313563, Compound 949642] | 1000 to 5000 nM | 100 to 1000 nM
CC1(C)CC(=O)C2=C(C1)NC1=C(CN=N1)C21CN(CC(F)F)C1 [US20250313563, Compound 912073] | 100 to 1000 nM | 100 to 1000 nM
CC[C@]1(c2cccc(C(F)(F)F)c2)C2=CN=NC2NC2=C1C(=O)N(c1cccnc1)CC2 (some centres not stated) [US20250313563, Compound 947432] | 100 to 1000 nM and > 5000 nM | < 100 nM and 100 to 1000 nM
CC[C@@]1(c2cccc(N(C)c3cccc(OC)n3)c2)C2=CN=NC2NC2=C1C(=O)CC(C)(C)C2 (some centres not stated) [US20250313563, Compound 932666] | 100 to 1000 nM | < 100 nM
CC(C)(C)CC1=C2C(N=N1)NC1=C(C(=O)CC(C)(C)C1)[C@@]21CCc2cccc(F)c21 (some centres not stated) [US20250313563, Compound 801352] | < 100 nM | 100 to 1000 nM
CC[C@]1(c2cccc(C(F)(F)F)c2)C2=CN=NC2NC2=C1C(=O)N(Cc1ccccc1)CC2 (some centres not stated) [US20250313563, Compound 912005] | 1000 to 5000 nM | 100 to 1000 nM
CCC1(c2cccc(-c3cnn(C)c3)c2)C2=C(CC(C)(C)NC2=O)NC2N=NC(C(F)F)=C21 (configuration not stated) [US20250313563, Compound 949171] | < 100 nM and 1000 to 5000 nM | < 100 nM
CC[C@@]1(c2cccc(-c3cc(C)nn3C)c2)C2=CN=NC2NC2=C1C(=O)NC(C)(C)C2 (some centres not stated) [US20250313563, Compound 943967] | > 5000 nM | > 5000 nM
CC1(C)CC(=O)C2=C(C1)NC1=C(CN=N1)C21CCN(S(=O)(=O)c2cccc3c2OCCO3)CC1 [US20250313563, Compound 947464] | < 100 nM and 100 to 1000 nM | < 100 nM
CC[C@@]1(c2cccc(-c3cnn(CC(=O)N(C)C)c3)c2)C2=CN=NC2NC2=C1C(=O)NC(C)(C)C2 (some centres not stated) [US20250313563, Compound 952208] | > 5000 nM | 100 to 1000 nM
CC[C@]1(c2cccc(-c3cnn(C)c3)c2)C2=C(CC(C)(C)CC2=O)NC2N=NC(C)=C21 (some centres not stated) [US20250313563, Compound 913038] | 1000 to 5000 nM | 100 to 1000 nM
CC1(C)CC(=O)C2=C(C1)NC1=C(CN=N1)C21CCN(S(=O)(=O)c2cnnn2-c2ccccc2)CC1 [US20250313563, Compound 947466] | 100 to 1000 nM | < 100 nM
CC1(C)CC(=O)C2=C(C1)NC1=C(CN=N1)C21CCN(S(=O)(=O)c2cnn(-c3ccccc3)c2)CC1 [US20250313563, Compound 947904] | < 100 nM | < 100 nM
CCC1(c2cccc(-c3nc(C)ncc3C)c2)C2=CN=NC2NC2=C1C(=O)CC(C)(C)C2 (configuration not stated) [US20250313563, Compound 948091] | 100 to 1000 nM | < 100 nM
COCCn1cc(S(=O)(=O)N2CCC3(CC2)C2=C(N=NC2)NC2=C3C(=O)CC(C)(C)C2)cn1 [US20250313563, Compound 947477] | < 100 nM | < 100 nM
CC[C@@]1(c2cccc(C(F)(F)F)c2)C2=C(CC(C)(C)CC2=O)NC2N=NC(C)=C21 (some centres not stated) [US20250313563, Compound 810367] | < 100 nM | < 100 nM
CC[C@]1(c2cccc(-c3cn(C)nc3C)c2)C2=C(CC(C)(C)CC2=O)NC2N=NC(C)=C21 (some centres not stated) [US20250313563, Compound 913035] | < 100 nM and 100 to 1000 nM | < 100 nM
CC1(C)CC(=O)C2=C(C1)NC1=C(CN=N1)C21CCOCC1 [US20250313563, Compound 826648] | 100 to 1000 nM | 100 to 1000 nM
CCC1(c2cccc(Nc3ncccn3)c2)C2=CN=NC2NC2=C1C(=O)CC(C)(C)C2 (configuration not stated) [US20250313563, Compound 913334] | 100 to 1000 nM | < 100 nM
CC[C@]1(c2cccc(-c3ccnc(C)c3)c2)C2=C(CC(C)(C)NC2=O)NC2N=NC(F)=C21 (some centres not stated) [US20250313563, Compound 949001] | 100 to 1000 nM | 100 to 1000 nM
CC[C@@]1(c2cccc(-c3cn(C)nc3C)c2)C2=CN=NC2NC2=C1C(=O)NC(C)(C)C2 (some centres not stated) [US20250313563, Compound 945470] | < 100 nM and 1000 to 5000 nM | < 100 nM and 100 to 1000 nM
CC1CCCC12C1=C(N=NC1)NC1=C2C(=O)CC(C)(C)C1 (configuration not stated) [US20250313563, Compound 826765] | 1000 to 5000 nM | 100 to 1000 nM
CC[C@@]1(c2ccccc2)C2=CN=NC2NC2=C1C(=O)CC(C)(C)[C@H]2F (some centres not stated) [US20250313563, Compound 957200] | 100 to 1000 nM and > 5000 nM | 100 to 1000 nM and > 5000 nM

From BindingDB's records for patent US20250313563 (The Broad Institute, 2025)
